Structures are written as SMILES.

Format in all cases: in vivo
Assay [1] concerns Myzus persicae. In words: Myzus persicae spray test (MYZUPE), Chinese cabbage leaf discs. To be noted: Myzus persicae, foliar, 120 h; for pest or weed control at 20 g/ha / pest or weed control at 100 g/ha: 5 days (5 dat), read-out: efficacy. As for the experimental part: (§1) [table] To produce a suitable active ingredient formulation, 1 part by weight of active ingredient is dissolved with the specified parts by weight of solvent and made up to the desired concentration with water containing an emulsifier concentration of 1000 ppm. To produce further test concentrations, the formulation is diluted with emulsifier-containing water. Discs of Chinese cabbage leaves (Brassica pekinensis) infested by all stages of the green peach aphid (Myzus persicae) are sprayed with an active ingredient formulation of the desired concentration. After 5 days, the efficacy in % is determined. 100% means that all the aphids have been killed; 0% means that no aphids have been killed. [table] To produce an appropriate active ingredient formulation, 1 part by weight of active ingredient is dissolved with the stated parts by weight of solvent and made up with water containing an emulsifier concentration of 1000 ppm until the desired concentration is attained. For production of further test concentrations, the mixture is diluted with emulsifier-containing water. Discs of chinese cabbage leaves (Brassica pekinensis) infested by all stages of the green peach aphid (Myzus persicae) are sprayed with an active ingredient formulation of the desired concentration. After the desired time, the efficacy in % is determined. 100% means that all aphids have been killed; 0% means that no aphids have been killed.

Assay [2] relates to Phaedon cochleariae. In words: Phaedon cochleariae spray test (PHAECO), Chinese cabbage leaf discs. To be noted: for pest or weed control at 100 g/ha / percent efficacy (larval mortality) at a fixed application rate at 20 g/ha: Phaedon cochleariae, foliar, 168 h; for pest or weed control at 100 g/ha: 7 days (7 dat), read-out: efficacy; for percent efficacy (larval mortality) at a fixed application rate at 20 g/ha / % efficacy: PHAECO, 7 dat. As for the experimental part: as §1, with “pekinensis)” for “pekinensis) infested by all stages of the green peach aphid (Myzus persicae)”, “concentration and, after drying, populated with larvae of the mustard beetle (Phaedon cochleariae).” for “concentration.”, “7” for “5”, “beetle larvae” for “aphids”

A further assay concerns Nilaparvata lugens. In words: Nilaparvata lugens spray test (NILALU). To be noted: 4 dat; for Emax at 20 g/ha / % efficacy: 20 g/ha. The procedure:
(§2) [table] To produce an appropriate active ingredient formulation, 1 part by weight of active ingredient is dissolved with the specified parts by weight of solvent and made up with water containing an emulsifier concentration of 1000 ppm until the desired concentration is attained. To produce further test concentrations, the mixture is diluted with emulsifier-containing water. If addition of ammonium salts or/and penetrants is required, these are each added to the preparation solution in a concentration of 1000 ppm. Rice plants (Oryza sativa) are sprayed with an active ingredient formulation of the desired concentration and then populated with larvae of the brown planthopper (Nilaparvata lugens). After the desired time, the efficacy in % is determined. 100% means that all planthoppers have been killed; 0% means that no planthoppers have been killed.

The subject of the next assay is Aphis gossypii. As to the kind of experiment: Aphis gossypii spray test (APHIGO), cotton plants. To be noted: Aphis gossypii, 144 h, 6 dat, read-out: % efficacy. The procedure: as §2, with “Cotton” for “Rice”, “(Gossypium hirsutum) severely infested by the cotton aphid (Aphis gossypii)” for “(Oryza sativa)”, “concentration.” for “concentration and then populated with larvae of the brown planthopper (Nilaparvata lugens).”, “kill” for “efficacy”, “aphids” for “planthoppers”

Assay [3] has as its system Myzus persicae. In words: Myzus persicae spray test (MYZUPE S), bell pepper plants. To be noted: 144 h, 6 dat, read-out: % efficacy. The procedure:
[table] To produce an appropriate active ingredient formulation, 1 part by weight of active ingredient is dissolved with the specified parts by weight of solvent and made up with water containing an emulsifier concentration of 1000 ppm until the desired concentration is attained. To produce further test concentrations, the mixture is diluted with emulsifier-containing water. If addition of ammonium salts or/and penetrants is required, these are each added to the preparation solution in a concentration of 1000 ppm. Bell pepper plants (Capsicum annuum) severely infested by the green peach aphid (Myzus persicae) are treated by spraying with the active ingredient formulation in the desired concentration. After the desired time, the kill in % is determined. 100% means that all the animals have been killed; 0% means that no animals have been killed.

Assay [4] has as its system Myzus persicae. In words: Myzus persicae oral test. To be noted: 120 h, after 5 days, read-out: efficacy. As for the experimental part:
[table] To produce a suitable active ingredient formulation, 1 part by weight of active ingredient is dissolved with the stated parts by weight of solvent and made up to the desired concentration with water. 50 μl of the active ingredient preparation are transferred into microtitre plates and made up to a final volume of 200 μl with 150 μl of IPL41 insect medium (33%+15% sugar). Subsequently, the plates are sealed with parafilm, which a mixed population of green peach aphids (Myzus persicae) within a second microtitre plate is able to puncture and imbibe the solution. After 5 days, the efficacy in % is determined. 100% means that all the aphids have been killed; 0% means that no aphids have been killed.

The next assay concerns Lucilia cuprina. In words: Lucilia cuprina test. To be noted: 48 h, L1 larvae, after 2 days, read-out: efficacy (kill). The procedure: Solvent: dimethyl sulfoxide To produce a suitable active ingredient formulation, 10 mg of active ingredient are mixed with 0.5 ml of dimethyl sulfoxide, and the concentrate is diluted with water to the desired concentration. About 20 L1 larvae of the Australian sheep blowfly (Lucilia cuprina) are transferred into a test vessel containing minced horsemeat and the active ingredient formulation of the desired concentration. After 2 days, the kill in % is determined. 100% means that all the larvae have been killed; 0% means that no larvae have been killed.

The test system of a further assay is Nezara viridula. In words: Nezara viridula spray test (NEZARA / NEZAVI). To be noted: 4 dat; for % efficacy: 500 g/ha. As for the experimental part: as §2, with “Barley” for “Rice”, “(Hordeum vulgare) infected with larvae of the southern green shield bug (Nezara viridula)” for “(Oryza sativa)”, “concentration.” for “concentration and then populated with larvae of the brown planthopper (Nilaparvata lugens).”, “bugs” for “planthoppers”

The subject of another assay is Tetranychus urticae. As to the kind of experiment: Tetranychus urticae spray test, OP-resistant (TETRUR). To be noted: Tetranychus urticae, 144 h; TETRUR, 100 g/ha, 6 dat; read-out: % efficacy. The procedure:
[table] To produce a suitable active ingredient formulation, 1 part by weight of active ingredient is dissolved with the specified parts by weight of solvent and made up to the desired concentration with water containing an emulsifier concentration of 1000 ppm. To produce further test concentrations, the formulation is diluted with emulsifier-containing water. Discs of bean leaves (Phaseolus vulgaris) infested with all stages of the greenhouse red spider mite (Tetranychus urticae) are sprayed with an active ingredient formulation of the desired concentration. After 6 days, the efficacy in % is determined. 100% means that all the spider mites have been killed; 0% means that no spider mites have been killed.

The test system of assay [5] is Phaedon cochleariae. In words: Phaedon cochleariae spray test (PHAECO S), cabbage leaves. To be noted: 20 ppm, 7 dat. As for the experimental part: as §2, with “Cabbage leaves (Brassica oleracea)” for “Rice plants (Oryza sativa)”, “and” for “and then”, “mustard beetle (Phaedon cochleariae).” for “brown planthopper (Nilaparvata lugens).”, “kill” for “efficacy”, “beetle larvae” for “planthoppers”

Another assay has as its system Meloidogyne incognita. As to the kind of experiment: Meloidogyne incognita test (MELGIN). To be noted: 20 ppm, 14 days (14 dat). The procedure:
[table] To produce a suitable active ingredient formulation, 1 part by weight of active ingredient is mixed with the stated amount of solvent and the concentrate is diluted to the desired concentration with water. Vessels are filled with sand, active ingredient solution, an egg/larvae suspension of the southern root-knot nematode (Meloidogyne incognita) and lettuce seeds. The lettuce seeds germinate and the plants develop. The galls develop on the roots. After 14 days, the nematicidal efficacy in % is determined by the formation of galls. 100% means that no galls were found; 0% means that the number of galls on the treated plants corresponds to the untreated control. [table] To produce an appropriate active ingredient formulation, 1 part by weight of active ingredient is mixed with the specified amount of solvent and the concentrate is diluted to the desired concentration with water. Vessels are filled with sand, active ingredient solution, an egg/larvae suspension of the southern root-knot nematode (Meloidogyne incognita) and lettuce seeds. The lettuce seeds germinate and the plants develop. The root-knots develop on the roots. After the desired time, the nematicidal effect is determined from the formation of root-knots in %. 100% means that no root-knots were found; 0% means that the number of root-knots on the treated plants corresponds to that on the untreated control.

The mark [6] stands for this setting: Nilaparvata lugens, 96 h, read-out: % efficacy.

As for `CCS(=O)(=O)c1ccc(C(=O)NC2CC2)nc1-c1nc2cc(C(F)(F)F)nnc2n1C` [reference compound], the pest or weed control at 20 g/ha with Myzus persicae [1] was determined as 0%. For the same molecule, in the assay with Phaedon cochleariae [2], the pest or weed control at 100 g/ha was found to be 33% and the percent efficacy (larval mortality) at a fixed application rate at 20 g/ha is 33%. Further, in the assay with Nilaparvata lugens (setting [6]), the Emax at 20 g/ha was found to be 0% and the Emax at 100 g/ha was 0%. The Emax at 4 ppm in the assay on Aphis gossypii was 0%. Further, the Emax at 4 ppm in the assay with Myzus persicae [3] is 0%.

With `CCS(=O)(=O)c1ccc(C(=O)NC2CC2)nc1-c1nc2cc(C(F)(F)C(F)(F)F)nnc2n1C` [Example I-03], the pest or weed control at 0.8 ppm in the assay on Myzus persicae [4] is 100%. In addition, in the assay on Myzus persicae [1], the pest or weed control at 20 g/ha stood at 90% and the pest or weed control at 100 g/ha is 100%. In the assay with Phaedon cochleariae [2], the pest or weed control at 100 g/ha is 100% and the percent efficacy (larval mortality) at a fixed application rate at 20 g/ha came to 100%. Besides, in the assay on Nilaparvata lugens (setting [6]), the Emax at 20 g/ha is 80% and the Emax at 100 g/ha stood at 100%. For the same molecule, the Emax at 4 ppm with Aphis gossypii amounted to 95%. Also, the pest or weed control at 100 ppm in the assay with Lucilia cuprina is 100%. For the same molecule, in the assay with Myzus persicae [3], the Emax at 4 ppm came out at 100%.

On to `CCS(=O)(=O)c1ccc(NC(=O)N(C)C)nc1-c1nc2cc(C(F)(F)F)nnc2n1C` [reference compound], for which the Emax at 4 g/ha with Myzus persicae [1] (MYZUPE, 4 g/ha, 5 dat, read-out: % efficacy) was 0%; in the assay on Nilaparvata lugens (Nilaparvata lugens, 96 h, 4 g/ha, read-out: % efficacy), 0%; in the assay with Nezara viridula (Nezara viridula, 96 h, 4 g/ha, read-out: % efficacy) it was 0%. Moreover, in the assay on Aphis gossypii, the Emax at 4 ppm is 15%. Also, in the assay on Tetranychus urticae, the Emax at 100 g/ha was found to be 0%. Also, in the assay on Phaedon cochleariae [5] (Phaedon cochleariae, 168 h, read-out: % efficacy), the Emax at 20 ppm stood at 20%.

Regarding `CCS(=O)(=O)c1ccc(C(N)=O)nc1-c1nc2cc(C(F)(F)C(F)(F)F)nnc2n1C` [drawing 40, reference compound], the “% efficacy” value in the assay on Phaedon cochleariae [2] (0.8 g/ha) worked out at 0%; with Phaedon cochleariae [2] (4 g/ha), 33%; in the assay on Nilaparvata lugens, 50%; in the assay with Nezara viridula it was 0%; in the assay with Phaedon cochleariae [5], 0%. The “efficacy (nematicidal, gall formation)” value with Meloidogyne incognita is listed as 0%.

Consider `CCS(=O)(=O)c1ccc(C(N)=O)nc1-c1nc2cc(C(F)(F)C(F)(F)F)nnc2n1C` [Example I-02], for which, in the assay with Myzus persicae [4], the pest or weed control at 0.8 ppm is 100%. The pest or weed control at 100 g/ha in the assay with Myzus persicae [1] and in the assay on Phaedon cochleariae [2] was 100% throughout. Moreover, the “% efficacy” value turned out to be 83% in the assay with Phaedon cochleariae [2] (0.8 g/ha); 100% with Phaedon cochleariae [2] (4 g/ha); 90% in the assay with Nilaparvata lugens; 90% in the assay on Nezara viridula; 100% with Phaedon cochleariae [5]. The “efficacy (nematicidal, gall formation)” value in the assay on Meloidogyne incognita is 90%. The pest or weed control at 100 ppm in the assay on Lucilia cuprina was determined as 100%.

As to `CCS(=O)(=O)c1ccc(C(=O)N(C)C)nc1-c1nc2cc(C(F)(F)C(F)(F)F)nnc2n1C` [Example I-05], the pest or weed control at 0.8 ppm with Myzus persicae [4] was determined as 100%. Moreover, the pest or weed control at 20 g/ha in the assay with Myzus persicae [1] amounted to 90%. In addition, the pest or weed control at 100 g/ha with Myzus persicae [1] came to 90%; in the assay on Phaedon cochleariae [2], 100%. The Emax at 0.8 ppm in the assay with Aphis gossypii (0.8 ppm) was 65%; in the assay on Myzus persicae [3] (0.8 ppm) it was 95%. Besides, the pest or weed control at 100 ppm with Lucilia cuprina was 100%.

The values are drawn from patent US11089783B2, “2-(het)aryl-substituted fused heterocycle derivatives as pesticides” (Bayer Aktiengesellschaft, priority 2017, dated 2021).
